These results are taken from patent US7939253B2, “Methods and compositions for the diagnosis and treatment of ewing's sarcoma” (The University of Utah Research Foundation, priority 2007, dated 2011).

Where only a bound is given, the exact number is not on record here.

One test deals with casein kinase II (CKII) (Homo sapiens, UniProt P68400). Particulars: 5 μg/ml; cited from earlier work.
In test [1] the test system is A673 Ewing's sarcoma cells. As to the kind of experiment: Soft agar colony formation in the presence of histone deacetylase inhibitor. Format: cell-based. Particulars: 1.5 uM, versus ethanol carrier, FIG. 6. On the procedure: Cell Culture: Ewing's sarcoma cell lines were grown as described (Lessnick et al., 2002). Following retroviral infection, polyclonal cell populations were prepared by growth in the appropriate selective media. Soft agar assays were performed as described (Lessnick et al., 2002). Tet-A673 cells were generated by infection with pREV-TETOFF (Clontech) and selection with G418. A single clone was then infected with FLAG-EWS/FLI-pREV-TRE, and selected with hygromycin in the presence of 1 ug/ml doxycycline and G418 (Lessnick et al., 2002). Individual clones were tested for induction of FLAG-EWS/FLI as previously described (Lessnick et al., 2002).
To test the effect of a histone deacetylase inhibitor on NKX2.2 activity, A673 Ewing's sarcoma cells were seeded into soft agar in the presence of 1.5 uM tricostatin (TSA), or ethanol (the TSA carrier) (FIG. 6). […] Soft agar colony formation is one measure of oncogenic transformation. Thus, the histone deacetylase inhibitor TSA blocks oncogenic transformation of Ewing's sarcoma cells.

Sequence of casein kinase II (CKII) (P68400 whole entry): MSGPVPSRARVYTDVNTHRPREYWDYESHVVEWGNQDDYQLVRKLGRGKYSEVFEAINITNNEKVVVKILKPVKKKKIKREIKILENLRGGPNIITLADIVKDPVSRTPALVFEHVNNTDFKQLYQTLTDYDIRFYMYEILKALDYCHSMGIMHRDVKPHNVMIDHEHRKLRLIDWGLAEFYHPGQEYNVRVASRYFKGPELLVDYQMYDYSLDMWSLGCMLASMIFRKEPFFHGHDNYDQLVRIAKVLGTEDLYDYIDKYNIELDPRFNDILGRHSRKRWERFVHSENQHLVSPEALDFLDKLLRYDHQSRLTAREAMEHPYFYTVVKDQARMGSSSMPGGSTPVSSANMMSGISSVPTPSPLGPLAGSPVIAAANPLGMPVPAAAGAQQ

As to heparin, at casein kinase II (CKII), the “inhibition of the protein kinase activity of CKII” value is more than 90%.

With `CC(/C=C/C(=O)NO)=C\[C@@H](C)C(=O)c1ccc(N(C)C)cc1` [TSA, Trichostatin A], in test [1], the “soft agar colony formation (oncogenic transformation)” value is on record as “prevents Ewing's cells from forming colonies in soft agar”.
